Experimental data: patent US9125955B2, “99mTc imaging agents and methods of use” (GENERAL ELECTRIC COMPANY, priority 2012, dated 2015)

Assay: Ligand stability studies (stock solution at room temperature, LC-MS)
Type: physicochemical
Conditions: stock solution ~300 μg in 4 mL DMSO/H2O [1:1 v/v] (water for other ligands), bench top, LC-MS every 24 h, 3 days
Procedure: Ligand stability studies: A stock solution (prepared by dissolving ˜300 μg of ligand in 4 mL of water; in the cases of Compound 2, 4 mL of DMSO/H2O[1:1 v/v] was used) was stored on bench top at room temperature without extra precautions.

decomposition of ligand stock solution by LC-MS: no decomposition was observed
Structure (SMILES): C/C(=N\O)C(C)(C)NCCN(CCNC(C)(C)/C(C)=N/O)S(=O)(=O)c1ccc(C)cc1 [Compound 2, N,N-bis(2-((E)-3-(hydroxyimino)-2-methylbutan-2-ylamino)ethyl)-4-methylbenzenesulfonamide]
